Assay results reported in patent publication US20230051589A1, “COMPOUNDS AND COMPOSITIONS FOR TREATING CONDITIONS ASSOCIATED WITH NLRP ACTIVITY” (Novartis AG, priority 2018, published 2023).

Test system: IL-1β production in PMA-differentiated THP-1 cells
Assay: IL-1β production in PMA-differentiated THP-1 cells stimulated with gramicidin (hTHP-1 assay, 2% fetal bovine serum; Procedures 1-3)
Assay type: cell-based, human
Conditions: Homo sapiens, THP-1, Table B1; hTHP-1 assay containing 2% fetal bovine serum, gramicidin stimulation, IL-1β readout; read-out: hTHP-1 IC50 (average)
How it was run: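 IL-1β released into supernatants was read by HTRF after 2 h gramicidin (5 μM) challenge. Before challenge, compounds (3-fold dilutions, top 100 μM, 0.37% DMSO) were given 1 h on THP-1 cells differentiated with PMA (20 ng/ml, 16-18 h) and held in 2% FBS medium.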

IC50	SMILES
40 to 200 nM	COC(C)(C)c1ncc(S(N)(=O)=NC(=O)Nc2c3c(cc4c2CCC4)CCC3)s1 (stereo not drawn) [Example 295, N′-((1,2,3,5,6,7-hexahydro-s-indacen-4-yl)carbamoyl)-2-(2-methoxypropan-2-yl)-thiazole-5-sulfonimidamide]

Same assay, conditions: Homo sapiens, THP-1, hTHP-1 assay containing 2% fetal bovine serum, Table B2, class symbols; read-out: IC50

IC50	SMILES
200 to 1000 nM	CC(C)n1nc([S@@](N)(=O)=NC(=O)Nc2c3c(cc4c2C(=O)CC4)CCC3)cc1C(C)(C)O [Compound 908b]
1000 to 5000 nM	CN1CCCC(c2ccc(S(N)(=O)=NC(=O)Nc3c4c(cc5c3CC5)CCC4)c(F)c2)C1 (stereo not drawn) [Compound 911]
1000 to 5000 nM	CN1CCC[C@H](c2ccc([S@](N)(=O)=NC(=O)Nc3c4c(cc5c3CC5)CCC4)c(F)c2)C1 [Compound 911b]
1000 to 5000 nM	CN1CCC[C@@H](c2ccc([S@@](N)(=O)=NC(=O)Nc3c4c(cc5c3CC5)CCC4)c(F)c2)C1 [Compound 911d]
40 to 200 nM	CC(C)(CO)c1ncc(S(N)(=O)=NC(=O)Nc2c3c(c(C#N)c4c2CCC4)CCC3)s1 (stereo not drawn) [Compound 913]
1000 to 5000 nM	CC(C)(CO)c1ncc([S@@](N)(=O)=NC(=O)Nc2c3c(c(C#N)c4c2CCC4)CCC3)s1 [Compound 913a]
40 to 200 nM	CC(C)(CO)c1ncc([S@](N)(=O)=NC(=O)Nc2c3c(c(C#N)c4c2CCC4)CCC3)s1 [Compound 913b]
1000 to 5000 nM	CC(C)(O)c1nc(CO)c(S(N)(=O)=NC(=O)Nc2c3c(cc4c2C(=O)CC4)CCC3)s1 (stereo not drawn) [Compound 914]
5000 to 30000 nM	CC(C)(O)c1nc(CO)c([S@@](N)(=O)=NC(=O)Nc2c3c(cc4c2C(=O)CC4)CCC3)s1 [Compound 914a]
1000 to 5000 nM	CC(C)(O)c1nc(CO)c([S@](N)(=O)=NC(=O)Nc2c3c(cc4c2C(=O)CC4)CCC3)s1 [Compound 914b]
200 to 1000 nM	CCn1ccc(S(N)(=O)=NC(=O)Nc2c3c(cc4c2CC4)CCC3)n1 (stereo not drawn) [Compound 916]
40 to 200 nM	CCn1ccc([S@](N)(=O)=NC(=O)Nc2c3c(cc4c2CC4)CCC3)n1 [Compound 916a]
1000 to 5000 nM	CCn1ccc([S@@](N)(=O)=NC(=O)Nc2c3c(cc4c2CC4)CCC3)n1 [Compound 916b]
5000 to 30000 nM	NS(=O)(=NC(=O)Nc1c2c(cc3c1CCC3)CCC2)c1ccc(-c2ccccc2)s1 (stereo not drawn) [Compound 917]
200 to 1000 nM	C[C@@](O)(CO)c1ncc([S@](N)(=O)=NC(=O)Nc2c3c(cc4c2CC4)CCC3)s1 [Compound 919a]
8 to 40 nM	C[C@@](O)(CO)c1ncc([S@@](N)(=O)=NC(=O)Nc2c3c(cc4c2CC4)CCC3)s1 [Compound 919b]

IC50	SMILES
8 to 40 nM	C[C@@](O)(CO)c1ncc(S(N)(=O)=NC(=O)Nc2c3c(cc4c2CC4)CCC3)s1 (stereo partly drawn) [Compound 919c]
200 to 1000 nM	C[C@](O)(CO)c1ncc([S@](N)(=O)=NC(=O)Nc2c3c(cc4c2CC4)CCC3)s1 [Compound 919d]
8 to 40 nM	C[C@](O)(CO)c1ncc([S@@](N)(=O)=NC(=O)Nc2c3c(cc4c2CC4)CCC3)s1 [Compound 919e]
200 to 1000 nM	C[C@@](O)(CO)c1ncc([S@@](N)(=O)=NC(=O)Nc2c3c(cc4c2C(=O)CC4)CCC3)s1 [Compound 920b]
40 to 200 nM	C[C@](O)(CO)c1ncc(S(N)(=O)=NC(=O)Nc2c3c(cc4c2C(=O)CC4)CCC3)s1 (stereo partly drawn) [Compound 920c]
200 to 1000 nM	C[C@@](O)(CO)c1ncc(S(N)(=O)=NC(=O)Nc2c3c(cc4c2C(=O)CC4)CCC3)s1 (stereo partly drawn) [Compound 920d]
5000 to 30000 nM	N[S@@](=O)(=NC(=O)Nc1c2c(cc3c1CCC3)CCC2)c1ccc([C@H]2CCCN2)s1 [Compound 921a]
200 to 1000 nM	N[S@](=O)(=NC(=O)Nc1c2c(cc3c1CCC3)CCC2)c1ccc([C@H]2CCCN2)s1 [Compound 921b]
1000 to 5000 nM	N[S@@](=O)(=NC(=O)Nc1c2c(cc3c1CCC3)CCC2)c1ccc([C@@H]2CCCN2)s1 [Compound 921c]
200 to 1000 nM	N[S@](=O)(=NC(=O)Nc1c2c(cc3c1CCC3)CCC2)c1ccc([C@@H]2CCCN2)s1 [Compound 921d]
200 to 1000 nM	NS(=O)(=NC(=O)Nc1c2c(cc3c1CCC3)CCC2)c1ccc([C@H]2CCCN2)s1 (stereo partly drawn) [Compound 921e]
200 to 1000 nM	CC(C)(O)c1csc(S(N)(=O)=NC(=O)Nc2c3c(cc4c2CCC4=O)CCC3)c1 (stereo not drawn) [Example 434, 4-(2-Hydroxypropan-2-yl)-N′-((1-oxo-1,2,3,5,6,7-hexahydro-s-indacen-4-yl)carbamoyl)thiophene-2-sulfonimidamide]
5000 to 30000 nM	CC(C)(O)c1ncc(S(N)(=O)=NC(=O)Nc2cc3c(c4c2CCC4=O)CCC3)s1 (stereo not drawn) [Example 435, 2-(2-hydroxypropan-2-yl)-N′-((1-oxo-1,2,3,6,7,8-hexahydro-as-indacen-4-yl)carbamoyl)thiazole-5-sulfonimidamide]
200 to 1000 nM	CC(C)(O)c1cc(F)c(S(N)(=O)=NC(=O)Nc2c3c(cc4c2CCC4=O)CCC3)s1 (stereo not drawn) [Example 438, 3-Fluoro-5-(2-hydroxypropan-2-yl)-N′-((1-oxo-1,2,3,5,6,7-hexahydro-s-indacen-4-yl)carbamoyl)thiophene-2-sulfonimidamide]
200 to 1000 nM	CC(C)(O)c1nc(S(N)(=O)=NC(=O)Nc2c3c(cc4c2CCC4)CCC3)cs1 (stereo not drawn) [Example 440, N-((1,2,3,5,6,7-hexahydro-s-indacen-4-yl)carbamoyl)-2-(2-hydroxypropan-2-yl)thiazole-4-sulfonimidamide]
200 to 1000 nM	NS(=O)(=NC(=O)Nc1c2c(cc3c1CCC3)CCC2)c1cnn2c1OC[C@H](O)C2 (stereo partly drawn) [Example 441, (6R)-N′-((1,2,3,5,6,7-hexahydro-s-indacen-4-yl)carbamoyl)-6-hydroxy-6,7-dihydro-5H-pyrazolo[5,1-b][1,3]oxazine-3-sulfonimidamide]

Same assay, conditions: Homo sapiens, THP-1, hTHP-1 assay containing 2% fetal bovine serum, Table B2, given as bound; read-out: IC50

IC50	SMILES
> 30000 nM	CC(C)n1nc([S@](N)(=O)=NC(=O)Nc2c3c(cc4c2C(=O)CC4)CCC3)cc1C(C)(C)O [Compound 908a]
> 30000 nM	CN1CCC[C@@H](c2ccc([S@](N)(=O)=NC(=O)Nc3c4c(cc5c3CC5)CCC4)c(F)c2)C1 [Compound 911a]
> 30000 nM	CN1CCC[C@H](c2ccc([S@@](N)(=O)=NC(=O)Nc3c4c(cc5c3CC5)CCC4)c(F)c2)C1 [Compound 911c]
> 30000 nM	C[C@@](O)(CO)c1ncc([S@](N)(=O)=NC(=O)Nc2c3c(cc4c2C(=O)CC4)CCC3)s1 [Compound 920a]

Same assay, conditions: Table B1; hTHP-1 assay containing 2% fetal bovine serum, gramicidin stimulation, IL-1β readout; read-out: hTHP-1 IC50 (average)

IC50	SMILES
8 to 40 nM	CC(C)(O)c1ncc([S@](N)(=O)=NC(=O)Nc2c3c(cc4c2CC4)CCC3)s1 [Example 224, (R)-2-(2-hydroxypropan-2-yl)-N′-((2,4,5,6-tetrahydro-1H-cyclobuta[f]inden-3-yl)carbamoyl) thiazole-5-sulfonimidamide]
1000 to 5000 nM	CC(C)(O)c1ncc(S(N)(=O)=NC(=O)Nc2c3c(cc4c2CC4)CCC3)s1 [Example 225, (R)- and (S)-2-(2-hydroxypropan-2-yl)-N′-((2,4,5,6-tetrahydro-1H-cyclobuta[f]inden-3-yl)carbamoyl)thiazole-5-sulfonimidamide]
5000 to 30000 nM	CNS(=O)(=NC(=O)Nc1c2c(cc3c1CCC3)CCC2)c1cnc(C(C)(C)O)s1 (stereo not drawn) [Example 247, N′-((1,2,3,5,6,7-hexahydro-s-indacen-4-yl)carbamoyl)-2-(2-hydroxypropan-2-yl)-N-methylthiazole-5-sulfon-imidamide]
40 to 200 nM	CC(c1ccc(S(N)(=O)=NC(=O)Nc2c3c(cc4c2CCC4)CCC3)cc1)N(C)C (stereo not drawn) [Example 266, 4-(1-(Dimethylamino)ethyl)-N′-(1,2,3,5,6,7-hexahydro-s-indacen-4-ylcarbamoyl)-benzenesulfonimidamide]
40 to 200 nM	CC1CCc2c1cc1c(c2NC(=O)N=S(N)(=O)c2cnc(C(C)(C)O)s2)CCC1 (stereo not drawn) [Example 291, 2-(2-Hydroxypropan-2-yl)-N′-((1-methyl-1,2,3,5,6,7-hexahydro-s-indacen-4-yl)-carbamoyl)thiazole-5-sulfon-imidamide]

Same assay, conditions: hTHP-1 assay containing 2% fetal bovine serum, Table B2, class symbols; read-out: IC50

IC50	SMILES
8 to 40 nM	CC(O)(CO)c1ncc(S(N)(=O)=NC(=O)Nc2c3c(cc4c2CCC4)CCC3)s1 (stereo not drawn) [Example 436, 2-(1,2-Dihydroxypropan-2-yl)-N′-((1,2,3,5,6,7-hexahydro-s-indacen-4-yl)carbamoyl)thiazole-5-sulfonimidamide]
1000 to 5000 nM	CC(O)(CO)c1ncc(S(N)(=O)=NC(=O)Nc2c3c(c(C#N)c4c2CCC4)CCC3)s1 (stereo not drawn) [Example 437, N′-((8-cyano-1,2,3,5,6,7-hexahydro-s-indacen-4-yl)carbamoyl)-2-(1,2-dihydroxypropan-2-yl)thiazole-5-sulfomidamide]
